The values that follow are results of earlier work, collected in US20220023301A1, “METHODS OF TREATING AUTOIMMUNE DISEASES WITH SMALL MOLECULE NF-kB INHIBITORS” (ImmuneTarget, Inc., priority 2020, published 2022).

In the series the test system is cuprizone induced neuroinflammation mouse model.

As for `CC(C)[C@]12O[C@H]1[C@@H]1O[C@]13[C@]1(O[C@H]1C[C@H]1C4=C(CC[C@@]13C)C(=O)OC4)[C@@H]2O` [Triptolide], the “motor function and motor coordination compared to control group” value (0.125 mg/kg administered intraperitoneally daily) is “improves motor function and motor coordination”. In addition, under “0.125 mg/kg dose”, the Bax/Bcl-2 ratio entry is recorded as “reduce Bax/Bcl-2 ratio”, the behavioral deficits entry was “improve behavioral deficits” and the “number of OLGs precursor cells (NG-2+/O4+)” value is on record as “raise the number of OLGs precursor cells”.
